Measured values taken from patent US11365201B2, “Chlorotonil derivatives” (HELMHOLTZ-ZENTRUM FÜR INFEKTIONSFORSCHUNG GMBH, priority 2017, dated 2022).
In brackets after ≈: the same amount, converted by molar mass. Read-outs that look alike come from different tables or passages of the source.

Tests used:
Format in all cases: cell-based
B. subtilis DSM-10 = assay: Antimicrobial assay, MIC by microbroth dilution; conditions: 16 h, cation-adjusted Muller-Hinton broth; for MIC: Bacillus subtilis, DSM10
Experimental: (§1) Bacterial strains used in susceptibility assays (minimum inhibitory concentrations, MIC) were either part of our internal strain collection or were purchased form the German Collection of Microorganisms and Cell Cultures (DSMZ). All compounds were prepared as DMSO stocks and MIC values were determined in standard microbroth dilution assays. Overnight cultures of bacteria were diluted in cation-adjusted Muller-Hinton broth (BBL™, BD) and were adjusted to approximately 10^5 cfu/mL. […] Bacteria were grown in the presence of the derivatives in serial dilution for 16 h at their optimal growth temperature. MIC values were determined according to CLSI guidelines (antibiotic concentration at which no visible bacterial growth is observed).

S. aureus Newman = assay: Antimicrobial assay, MIC by microbroth dilution; conditions: 16 h, cation-adjusted Muller-Hinton broth; for MIC: Staphylococcus aureus, NEWMAN
Experimental: as §1

C. glutamicum DSM-20300 = assay: Antimicrobial assay, MIC by microbroth dilution; conditions: 16 h, cation-adjusted Muller-Hinton broth; for MIC: Corynebacterium glutamicum, DSM20300
Experimental: as §1

E. coli TolC (+PMBN) = assay: Antimicrobial assay, MIC by microbroth dilution with PMBN; conditions: 16 h, 3 μg/mL polymyxin B nonapeptide (PMBN) added
Experimental: Bacterial strains used in susceptibility assays (minimum inhibitory concentrations, MIC) were either part of our internal strain collection or were purchased form the German Collection of Microorganisms and Cell Cultures (DSMZ). All compounds were prepared as DMSO stocks and MIC values were determined in standard microbroth dilution assays. Overnight cultures of bacteria were diluted in cation-adjusted Muller-Hinton broth (BBL™, BD) and were adjusted to approximately 10^5 cfu/mL. For the E. coli culture, 3 μg/mL of polymyxin B nonapeptide (PMBN) was added to increase permeability of the outer membrane as chlorotonils were previously shown to not penetrate into Gram-negative cells. Bacteria were grown in the presence of the derivatives in serial dilution for 16 h at their optimal growth temperature. MIC values were determined according to CLSI guidelines (antibiotic concentration at which no visible bacterial growth is observed).

[1] = test system: P. falciparum Dd2 (resistant strain); assay: Antiplasmodial in vitro drug sensitivity assay (HRP2-ELISA); conditions: P. falciparum Dd2 (resistant strain), read-out: IC50 against P. falciparum Dd2
Experimental: (§2) Two laboratory strains of P. falciparum, the chloroquine sensitive 3D7 and the multi-resistant Dd2 were kept in continuous culture as previously described (Trager and Jensen 1976). In brief, parasites were kept in complete culture medium (RPMI 1640, 25 mM HEPES, 2 mM L-glutamine, 50 μg/ml gentamicin and 0.5% w/v AlbuMAX) at 37° C., 5% CO2 and 5% oxygen at 5% hematocrit with daily change of medium. Synchronization was performed with sorbitol twice a week (Lambros and Vanderberg 1979).
(§3) In Vitro Drug Sensitivity Assay
(§4) All compounds were dissolved in DMSO at stock dilutions between 25 and 100 mM; the reference drug chloroquine diphosphate (MW: 515.86) was diluted in distilled water and DMSO, respectively. […] Antiplasmodial activity of the different compounds was tested in a drug sensitivity assay against the two laboratory strains using the histidine-rich protein 2 (HRP2) assay as described previously (Noedl 2005). In brief: 96 well plates were pre-coated with the different compounds in a threefold dilution before ring stage parasites were added in complete culture medium at a hematocrit of 1.5% and a parasitemia of 0.05% in a total volume of 225 μl per well. After three days of incubation plates were frozen until analyzed by HRP2-ELISA. All compounds were evaluated in duplicate in at least two independent experiments.

[2] = test system: P. falciparum 3D7 (sensitive strain); assay: as above; conditions: P. falciparum 3D7 (sensitive strain), read-out: IC50 against P. falciparum 3D7
Experimental: as §2, §3, §4

[3] = test system: L-929 (murine fibroblasts); assay: Cytotoxicity assay (MTT, 5 d); conditions: Mus musculus, L929, 120 h
Experimental: Cytotoxicity Assay The murine fibroblast cell line L-929 was obtained from the German Collection of Microorganisms and Cell Cultures (DSMZ) and maintained under conditions recommended by the depositor. Cells were seeded at 6×10^3 cells per well of sterile 96-well plates in 180 μL complete medium and treated with the compounds in serial dilution after 2 h of equilibration. After 5 d, viability was assessed by the MTT method. After 1.5 h incubation with 0.5 mg/mL MTT reagent, cells were washed with PBS and 100 μL of 2-propanol/10 N HCl (250:1) was added. The absorbance at 570 nm was determined on a microplate reader and cell viability was expressed as percentage relative to the respective solvent control. Half-inhibitory concentrations (IC50) were determined by sigmoidal curve fitting.

Gram-positive bacteria = assay: Antimicrobial assay, MIC against a range of Gram-positive bacteria (Table 5)
Experimental: as §1

| Compound | MIC (B. subtilis DSM-10) | MIC (S. aureus Newman) | MIC (C. glutamicum DSM-20300) | MIC E. coli TolC (+PMBN) (E. coli TolC (+PMBN)) | IC50 ([1]; Plasmodium falciparum) | IC50 ([2]; Plasmodium falciparum) | IC50 [3] | also measured |
| --- | --- | --- | --- | --- | --- | --- | --- | --- |
| C[C@@H]1C(=O)O[C@@H](C)/C=C/C=C\[C@@H](C)[C@@H]2C=C[C@@H]3C[C@@](C)(Cl)[C@H](O)[C@@H](C)[C@H]3[C@@H]2C(=O)C(Cl)(Cl)C1=O [ChA-Epo1-Cl] | 3.2 µg/mL (≈ 6.02 µM) | 3.2 µg/mL (≈ 6.02 µM) | > 3.2 µg/mL | 3.2 µg/mL | > 2.1 µM | > 2.1 µM |  |  |
| CCO[C@]1(C)C[C@H]2C=C[C@@H]3[C@@H](C(=O)C(Cl)(Cl)C(=O)[C@H](C)C(=O)O[C@@H](C)/C=C/C=C\[C@H]3C)[C@@H]2[C@H](C)[C@H]1O [ChA-Epo1-OEt] | > 6.4 µg/mL | > 1.6 µg/mL | > 6.4 µg/mL | 1.6 µg/mL |  |  |  |  |
| CO[C@]1(C)C[C@H]2C=C[C@@H]3[C@@H](C(=O)C(Cl)(Cl)C(=O)[C@H](C)C(=O)O[C@@H](C)/C=C/C=C\[C@H]3C)[C@@H]2[C@H](C)[C@H]1O [ChA-Epo1-OMe] | 6.4 µg/mL (≈ 12.1 µM) | 1.6 µg/mL (≈ 3.03 µM) | > 6.4 µg/mL | 0.8 to 1.6 µg/mL |  |  |  |  |
| C[C@@H]1C(=O)O[C@@H](C)/C=C/C=C\[C@@H](C)[C@@H]2C=C[C@]3(C)C[C@]4(C)O[C@@H]4[C@@H](C)[C@H]3[C@@H]2C(=O)C(Cl)(Cl)C1=O [ChA-Epo1] | 3.2 µg/mL (≈ 6.28 µM) | 3.2 µg/mL (≈ 6.28 µM) | > 3.2 µg/mL | >3.2 µg/mL | 0.229 µM | 0.0965 µM | 10300 nM |  |
| C[C@@H]1C(=O)O[C@@H](C)/C=C/C=C\[C@@H](C)[C@@H]2C=C[C@@H]3C[C@@](C)(O)[C@H](Br)[C@@H](C)[C@H]3[C@@H]2C(=O)C(Cl)(Cl)C1=O [ChA-Epo2-Br] | 0.05 µg/mL (≈ 0.0868 µM) | 0.05 µg/mL (≈ 0.0868 µM) | 0.1 µg/mL (≈ 0.174 µM) | 0.2 µg/mL | 0.0644 µM | 0.0251 µM | 1100 nM |  |
| C[C@@H]1C(=O)O[C@@H](C)/C=C/C=C\[C@@H](C)[C@@H]2C=C[C@@H]3C[C@@](C)(O)[C@H](F)[C@@H](C)[C@H]3[C@@H]2C(=O)C(Cl)(Cl)C1=O [ChA-Epo2-F] | 0.2 µg/mL (≈ 0.388 µM) | 0.2 µg/mL (≈ 0.388 µM) | 0.4 to 0.8 µg/mL (≈ 0.776 to 1.55 µM) | 0.8 µg/mL | 0.329 µM | 0.136 µM |  |  |
| C[C@@H]1C(=O)O[C@@H](C)/C=C/C=C\[C@@H](C)[C@@H]2C=C[C@@H]3C[C@@](C)(O)[C@H](OCc4ccccc4)[C@@H](C)[C@H]3[C@@H]2C(=O)C(Cl)(Cl)C1=O [ChA-Epo2-OBn] | 0.4 µg/mL (≈ 0.663 µM) | 0.4 µg/mL (≈ 0.663 µM) | 3.2 µg/mL (≈ 5.3 µM) | >3.2 µg/mL |  |  |  |  |
| C[C@@H]1C(=O)O[C@@H](C)/C=C/C=C\[C@@H](C)[C@@H]2C=C[C@@H]3C[C@@](C)(O)[C@H](OCCCCO)[C@@H](C)[C@H]3[C@@H]2C(=O)C(Cl)(Cl)C1=O [ChA-Epo2-OBuOH] | > 3.2 µg/mL | > 3.2 µg/mL | 3.2 µg/mL (≈ 5.46 µM) | 1.6 µg/mL |  |  |  |  |
| CCCCO[C@@H]1[C@@H](C)[C@H]2[C@@H]3C(=O)C(Cl)(Cl)C(=O)[C@H](C)C(=O)O[C@@H](C)/C=C/C=C\[C@@H](C)[C@@H]3C=C[C@@H]2C[C@@]1(C)O [ChA-Epo2-OBu] | 0.8 µg/mL (≈ 1.4 µM) | 1.6 µg/mL (≈ 2.81 µM) | > 3.2 µg/mL | >3.2 µg/mL |  |  | 49400 nM | IC50 ([1]; Plasmodium falciparum, μM): > 11 µM; IC50 ([2]; Plasmodium falciparum, μM): > 11 µM |
| CCO[C@@H]1[C@@H](C)[C@H]2[C@@H]3C(=O)C(Cl)(Cl)C(=O)[C@H](C)C(=O)O[C@@H](C)/C=C/C=C\[C@@H](C)[C@@H]3C=C[C@@H]2C[C@@]1(C)O [ChA-Epo2-OEt] | > 3.2 µg/mL |  | > 3.2 µg/mL | >3.2 µg/mL |  |  | > 100000 nM | IC50 ([1]; Plasmodium falciparum, μM): > 11 µM; IC50 ([2]; Plasmodium falciparum, μM): > 11 µM |
| C[C@@H]1C(=O)O[C@@H](C)/C=C/C=C\[C@@H](C)[C@@H]2C=C[C@@H]3C[C@@](C)(O)[C@H](O)[C@@H](C)[C@H]3[C@@H]2C(=O)C(Cl)(Cl)C1=O [ChA-Epo2-OH] | > 6.4 µg/mL |  | > 6.4 µg/mL | >6.4 µg/mL | > 2.17 µM | > 2.17 µM |  |  |
| CO[C@@H]1[C@@H](C)[C@H]2[C@@H]3C(=O)C(Cl)(Cl)C(=O)[C@H](C)C(=O)O[C@@H](C)/C=C/C=C\[C@@H](C)[C@@H]3C=C[C@@H]2C[C@@]1(C)O [ChA-Epo2-OMe] | > 3.2 µg/mL |  | > 3.2 µg/mL | 3.2 µg/mL |  |  | > 100000 nM | IC50 ([1]; Plasmodium falciparum, μM): > 11 µM; IC50 ([2]; Plasmodium falciparum, μM): > 11 µM |
| C[C@@H]1C(=O)O[C@@H](C)/C=C/C=C\[C@@H](C)[C@@H]2C=C[C@@H]3C[C@@](C)(O)[C@H](OCC(O)CO)[C@@H](C)[C@H]3[C@@H]2C(=O)C(Cl)(Cl)C1=O (stereo partly shown) [ChA-Epo2-glycerol] | > 3.2 µg/mL | 4 µg/mL (≈ 6.81 µM) | > 3.2 µg/mL | >3.2 µg/mL | > 1.9 µM | > 1.9 µM |  |  |
| C[C@H]1[C@H]2[C@@H]3C(=O)/C(Cl)=C(\O)[C@H](C)C(=O)O[C@@H](C)/C=C/C=C\[C@@H](C)[C@@H]3C=C[C@@H]2C[C@@]2(C)O[C@@H]12 [ChB1-Epo] |  |  |  |  |  |  |  | MIC (Gram-positive bacteria; Enterococcus faecalis, E. faecalis 20478, read-out: MIC): 0.8 µg/mL (≈ 1.74 µM); MIC (Gram-positive bacteria; Enterococcus faecalis, E. faecalis 29212, read-out: MIC): 0.8 µg/mL (≈ 1.74 µM); MIC (Gram-positive bacteria; Enterococcus faecium, E. faecium 20477, read-out: MIC): 0.2 µg/mL (≈ 0.434 µM); MIC (Gram-positive bacteria; Enterococcus faecium, VRE, E. faecium 17050 (VRE), read-out: MIC): 32 µg/mL (≈ 69.4 µM); MIC (Gram-positive bacteria; Micrococcus luteus, M. luteus, read-out: MIC): 0.0125 µg/mL (≈ 0.0271 µM); MIC (Gram-positive bacteria; Mycolicibacterium smegmatis, M. smegmatis, read-out: MIC): 16 µg/mL (≈ 34.7 µM); MIC (Gram-positive bacteria; Priestia megaterium, B. megaterium, read-out: MIC): 0.0125 µg/mL (≈ 0.0271 µM); MIC (Gram-positive bacteria; Staphylococcus epidermidis, S. epidermidis 28765, read-out: MIC): 0.05 µg/mL (≈ 0.108 µM); MIC (Gram-positive bacteria; Streptococcus pneumoniae, S. pneumoniae 20566, read-out: MIC): 0.4 µg/mL (≈ 0.868 µM) |
| CC1=C[C@@H](C)[C@H]2[C@@H]3C(O)=C(Cl)C(=O)[C@H](C)C(=O)O[C@@H](C)/C=C/C=C\[C@@H](C)[C@@H]3C=C[C@@H]2C1 [Chlorotonil B (ChB), Chlorotonil B, reference compound] |  |  |  | >3.2 µg/mL |  |  |  | MIC B. subtilis DSM-10 (B. subtilis DSM-10): 0.2 µg/mL (≈ 0.449 µM); MIC S. aureus Newman (S. aureus Newman): 0.2 µg/mL (≈ 0.449 µM); MIC C. glutamicum DSM-20300 (C. glutamicum DSM-20300): 0.1 µg/mL (≈ 0.225 µM); IC50 [1]: 0.0636 µM; IC50 [2]: 0.0966 µM; MIC (Gram-positive bacteria; B. megaterium): 0.1 µg/mL (≈ 0.225 µM); MIC (Gram-positive bacteria; E. faecalis 20478): >3.2 µg/mL; MIC (Gram-positive bacteria; E. faecalis 29212): >3.2 µg/mL; MIC (Gram-positive bacteria; E. faecium 17050 (VRE)): >3.2 µg/mL; MIC (Gram-positive bacteria; E. faecium 20477): >3.2 µg/mL; MIC (Gram-positive bacteria; M. luteus): 0.4 µg/mL (≈ 0.899 µM); MIC (Gram-positive bacteria; M. smegmatis): 0.0125 µg/mL (≈ 0.0281 µM); MIC (Gram-positive bacteria; S. epidermidis 28765): >3.2 µg/mL; MIC (Gram-positive bacteria; S. pneumoniae 11865 (PRSP)): >16 µg/mL; MIC (Gram-positive bacteria; S. pneumoniae 20566): 1.6 µg/mL (≈ 3.6 µM) |
